Measurements as given in patent publication US11319318B2, “Pyridinones and isoquinolinones as inhibitors of the bromodomain BRD9” (Boehringer Ingelheim International GmbH, priority 2015, dated 2022).

molecular target: T1, bromodomain of BRD9 (GST-BRD9 aa 130-259) / H3 K9/14/18/23Ac(1-28) peptide (Homo sapiens, UniProt Q9H8M2); experiment: BRD9-H3 tetra-acetylated Peptide Inhibition AlphaScreen; format: binding
T1 construct: The protein corresponding to amino acids 130-259 that contains the bromodomain of BRD9; made in house; host or cells: E. coli
T1 sequence (Q9H8M2 130-259): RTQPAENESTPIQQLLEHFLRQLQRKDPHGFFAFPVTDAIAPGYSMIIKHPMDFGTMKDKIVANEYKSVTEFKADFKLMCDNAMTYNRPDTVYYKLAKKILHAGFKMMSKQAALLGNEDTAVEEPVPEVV

| SMILES | IC50 [nM] |
| --- | --- |
| Cc1cc(-c2ccc([C@@H](C)N3CCCC3)cc2)cn(C)c1=O [Compound I-1, 1,3-Dimethyl-5-[4-((R)-1-pyrrolidin-1-yl-ethyl)-phenyl]-1H-pyridin-2-one] | 105 |
| Cc1cc(-c2ccc([C@H](C)N3CCCC3)cc2)cn(C)c1=O [Compound I-2, 1,3-dimethyl-5-[4-((S)-1-pyrrolidin-1-yl-ethyl)-phenyl]-1H-pyridin-2-one] | 145 |
| Cc1cc(-c2ccc([C@H](C)N3CCCCC3)cc2)cn(C)c1=O [Compound I-3] | 157 |
| Cc1cc(-c2ccc([C@@H](C)N3CCCCC3)cc2)cn(C)c1=O [Compound I-4] | 172 |
| Cc1cc(-c2ccc(C(C)N3CCCC3)cc2)cn(C)c1=O (stereo not drawn) [Compound I-5] | 137 |
| Cc1cc(-c2ccc(C(C)N3CCCCC3)cc2)cn(C)c1=O (stereo not drawn) [Compound I-6] | 318 |
| Cc1cc(-c2ccc(C(C)N3CCOCC3)cc2)cn(C)c1=O (stereo not drawn) [Compound I-10] | 1080 |
| Cc1cc(-c2ccc(C(C)N(C)C)cc2)cn(C)c1=O (stereo not drawn) [Compound I-11] | 1430 |
| CNS(=O)(=O)c1ccc(-c2cc(C)c(=O)n(C)c2)cc1 [Compound I-12] | 1550 |
| Cc1cc(-c2ccc(S(=O)(=O)C(C)C)cc2)cn(C)c1=O [Compound I-13] | 1590 |
| Cc1cc(-c2cccc(CN(C)C)c2)cn(C)c1=O [Compound I-17] | 2540 |
| Cc1cc(-c2ccc(CN3CCN(C)CC3)cc2)c(C)n(C)c1=O [Compound I-21] | 1690 |
| Cc1c(-c2ccc(C(=O)N3CCNCC3)cc2)cc(I)c(=O)n1C [Compound I-22] | 235 |
| Cc1cc(-c2cccc(NS(C)(=O)=O)c2)cn(C)c1=O [Compound I-31, N-[3-(1,5-Dimethyl-6-oxo-1,6-dihydro-pyridin-3-yl)-phenyl]-methanesulfonamide] | 1220 |
| COc1cc(-c2cc(C)c(=O)n(C)c2)ccc1CN1CC(O)C1 [Compound I-47, 5-[4-(3-Hydroxy-azetidin-1-ylmethyl)-3-methoxy-phenyl]-1,3-dimethyl-1H-pyridin-2-one] | 52 |
| Cc1cc(-c2ccc3c(c2)CNC3)cn(C)c1=O [Compound I-49, 5-(2,3-dihydro-1H-isoindol-5-yl)-1,3-dimethyl-1H-pyridin-2-one] | 65 |
| COc1cc(-c2cc(C)c(=O)n(C)c2)ccc1CN1C[C@@H]2CC1CN2C [Compound I-51] | 78 |
| COc1cc(-c2cc(C)c(=O)n(C)c2)ccc1CN1C[C@@H]2CC1CN2 [Compound I-54] | 121 |
| Cc1cc(-c2ccc(C3(N(C)C)CC3)cc2)cn(C)c1=O [Compound I-58] | 137 |
| CCC(CC)(c1ccc(-c2cc(C)c(=O)n(C)c2)cc1OC)N1CCN(C)CC1 [Compound I-61] | 179 |
| Cc1cc(-c2ccc(S(=O)(=O)N3CCNCC3)cc2)cn(C)c1=O [Compound I-64] | 211 |

| SMILES | IC50 [nM] |
| --- | --- |
| Cc1cc(-c2ccc(C3(N(C)C)CCC3)cc2)cn(C)c1=O [Compound I-66] | 213 |
| COc1cc(-c2cc(C)c(=O)n(C)c2)ccc1C1(N2CCN(C)CC2)CC1 [Compound I-67] | 215 |
| COc1cc(-c2cc(C)c(=O)n(C)c2)ccc1CN1C[C@H]2C[C@@H]1CN2C [Compound I-72] | 335 |
| Cc1cc(-c2ccc(C(=O)C3CCNCC3)cc2)cn(C)c1=O [Compound I-73] | 361 |
| Cc1cc(-c2cc(C)c(=O)n(C)c2)ccc1S(=O)(=O)N1CC(O)C1 [Compound I-75] | 393 |
| COc1cc(-c2cc(C)c(=O)n(C)c2)ccc1C(=O)N1C[C@@H]2CC1CN2 [Compound I-76] | 409 |
| COc1cc(-c2cc(C)c(=O)n(C)c2)ccc1C(=O)N1C[C@@H]2CC1CN2C [Compound I-77] | 418 |
| CCOc1cc(-c2cc(C)c(=O)n(C)c2)ccc1CN1CC[N+](C)(CC)CC1 [Compound I-81] | 502 |
| Cc1cc(-c2cc(C)c(=O)n(C)c2)ccc1S(=O)(=O)N1CCN(C)CC1 [Compound I-83] | 521 |
| Cc1cc(-c2cc(C)c(=O)n(C)c2)ccc1C1(N2CCN(C)CC2)CC1 [Compound I-84] | 618 |
| Cc1cc(-c2ccc3c(c2)CCNC3)cn(C)c1=O [Compound I-85] | 708 |
| COc1cc(-c2cc(C)c(=O)n(C)c2)ccc1CN1CCN(C)C(C)C1 (stereo not drawn) [Compound I-86] | 777 |
| Cc1cc(-c2cccc(CN)c2)cn(C)c1=O [Compound I-87] | 849 |
| Cc1cc(-c2ccc3c(c2)CNCC3)cn(C)c1=O [Compound I-90] | 950 |
| Cc1cc(-c2cc(C)c(=O)n(C)c2)ccc1CN [Compound I-92] | 1040 |
| Cc1cc(-c2ccc(C3(N4CCN(C)CC4)CC3)cc2)cn(C)c1=O [Compound I-95] | 1210 |
| Cc1cc(-c2cccc(C3CCCCN3)c2)cn(C)c1=O (stereo not drawn) [Compound I-98] | 2360 |
| Cc1cc(-c2ccc3c(c2)CNC3)c(C)n(C)c1=O [Compound I-126] | 167 |
| COc1cc(-c2cc(C)c(=O)n(C)c2C)ccc1CN1C[C@@H]2CC1CN2 [Compound I-127] | 198 |
| COc1cc(-c2cc(C)c(=O)n(C)c2C)ccc1CN1C[C@H]2C[C@@H]1CN2C [Compound I-128] | 222 |
| Cc1cc(-c2ccc(C(=O)C3CCNCC3)cc2)c(C)n(C)c1=O [Compound I-129] | 284 |

More lines, now with the values ahead:

| IC50 [nM] | SMILES |
| --- | --- |
| 326 | Cc1cc(-c2ccc(S(=O)(=O)NCCN(C)C)c(OC(F)(F)F)c2)cn(C)c1=O [Compound I-7] |
| 976 | Cc1cc(-c2ccc(S(=O)(=O)N(C)C)cc2)cn(C)c1=O [Compound I-8] |
| 74 | COc1cc(-c2cc(C)c(=O)n(C)c2)ccc1CN1CC(OC)C1 [Compound I-50] |
| 87 | COc1cc(-c2cc(C)c(=O)n(C)c2)cc(OC)c1CN1CCNCC1 [Compound I-52] |
| 97 | COc1cc(-c2cc(C)c(=O)n(C)c2)ccc1C1(N(C)C)CC1 [Compound I-53] |
| 124 | COc1cc(-c2cc(C)c(=O)n(C)c2)c(OC)cc1CN1CC(O)C1 [Compound I-55] |
| 131 | COc1cc(S(=O)(=O)N2CC(O)C2)c(OC)cc1-c1cc(C)c(=O)n(C)c1 [Compound I-56] |
| 132 | COc1cc(S(=O)(=O)NCCN(C)C)c(OC)cc1-c1cc(C)c(=O)n(C)c1 [Compound I-57] |
| 142 | COCc1c(OC)cc(-c2cc(C)c(=O)n(C)c2)cc1OC [Compound I-59] |
| 143 | Cc1cc(-c2cc(C)c(=O)n(C)c2)ccc1C1(N(C)C)CC1 [Compound I-60] |
| 181 | COc1cc(-c2cc(C)c(=O)n(C)c2)c(OC)cc1CN1CCN(C)CC1 [Compound I-62] |
| 203 | COc1cc(-c2cc(C)c(=O)n(C)c2)cc(OC)c1CN1CCN(C)CC1 [Compound I-63] |
| 213 | COc1cc(-c2cc(C)c(=O)n(C)c2)ccc1S(=O)(=O)NCCN(C)C [Compound I-65] |
| 223 | Cc1cc(-c2cc(C)c(=O)n(C)c2)ccc1S(=O)(=O)NCCN(C)C [Compound I-68] |
| 237 | COc1cc(S(=O)(=O)N2CCN(C)CC2)c(OC)cc1-c1cc(C)c(=O)n(C)c1 [Compound I-70] |
| 289 | CCc1cc(-c2cc(C)c(=O)n(C)c2)cc(OC)c1C(O)CC (stereo not drawn) [Compound I-71] |
| 371 | COc1cc(-c2cc(C)c(=O)n(C)c2)ccc1S(=O)(=O)N1CC(O)C1 [Compound I-74] |
| 515 | COc1cc(-c2cc(C)c(=O)n(C)c2)ccc1S(=O)(=O)N1CCN(C)CC1 [Compound I-82] |
| 1250 | COc1cc(-c2cc(C)c(=O)n(C)c2)ccc1CN [Compound I-96] |
| 37 | COc1cc(-c2cn(C)c(=O)c(C)c2C)cc(OC)c1CN1CC(O)C1 [Compound I-103] |

| IC50 [nM] | SMILES |
| --- | --- |
| 39 | COc1cc(-c2cn(C)c(=O)c(C)c2C)c(OC)cc1CN1CC(O)C1 [Compound I-104] |
| 103 | Cc1c(-c2ccc3c(c2)CNC3)cn(C)c(=O)c1C [Compound I-106] |
| 137 | COCc1c(OC)cc(-c2cn(C)c(=O)c(C)c2C)cc1OC [Compound I-107] |
| 152 | COc1cc(-c2cn(C)c(=O)c(C)c2C)ccc1CN1C[C@@H]2CC1CN2C [Compound I-108] |
| 193 | COc1cc(-c2cn(C)c(=O)c(C)c2C)ccc1CN1C[C@@H]2CC1CN2 [Compound I-109] |
| 197 | COc1cc(S(=O)(=O)N(C)CCN(C)C)c(OC)cc1-c1cn(C)c(=O)c(C)c1C [Compound I-110] |
| 226 | COc1cc(-c2cn(C)c(=O)c(C)c2C)ccc1C1(N2CCN(C)CC2)CC1 [Compound I-111] |
| 320 | Cc1cc(-c2cn(C)c(=O)c(C)c2C)ccc1C1(N2CCN(C)CC2)CC1 [Compound I-112] |
| 348 | COc1cc(-c2cn(C)c(=O)c(C)c2C)ccc1CN1C[C@H]2C[C@@H]1CN2C [Compound I-113] |
| 740 | Cc1c(-c2ccc(C(=O)C3CCNCC3)cc2)cn(C)c(=O)c1C [Compound I-115] |
| 744 | Cc1c(-c2ccc3c(c2)CCNC3)cn(C)c(=O)c1C [Compound I-116] |
| 1400 | Cc1cc(-c2cn(C)c(=O)c(C)c2C)ccc1C(=O)N1CCN(C)CC1 [Compound I-117] |
| 10 | COc1cc(-c2cc(C)c(=O)n(C)c2C)cc(OC)c1CN1CC(O)C1 [Compound I-118] |
| 55 | COc1cc(-c2cc(C)c(=O)n(C)c2C)ccc1CN1CC(O)C1 [Compound I-119] |
| 163 | COc1cc(-c2cc(C)c(=O)n(C)c2C)ccc1C1(N(C)C)CCC1 [Compound I-121] |
| 116 | COc1cc(-c2cc(C)c(=O)n(C)c2C)ccc1C1(N(C)C)CC1 [Compound I-122] |
| 144 | COc1cc(-c2cc(C)c(=O)n(C)c2C)cc(OC)c1CN1CCNCC1 [Compound I-124] |
| 166 | COc1cc(S(=O)(=O)N(C)CCN(C)C)c(OC)cc1-c1cc(C)c(=O)n(C)c1C [Compound I-125] |
| 302 | COCc1c(OC)cc(-c2cc(C)c(=O)n(C)c2C)cc1OC [Compound I-130] |
